Read-outs that look alike come from different tables or passages of the source.
How the values were obtained:
HBV [1] = assay: anti-HBV activity in HBV infected differentiated HepaRG cells (HBV DNA in supernatant by qPCR; checkerboard combination, isobologram model); format: cell-based, HBV (genotype D); conditions: Hepatitis B virus, 264 h, mean of 3 independent experiments
Method: HepG2.2.15 cells were cultured in DMEM+Glutamax I (Gibco, #21885) supplemented with 10% FBS, 1% Pen/Strep (Gibco, #15140) and G-418 (250 μg/mL) and used for production of infectious HBV (genotype D). 90% confluent cells from three T175 flasks were trypsinized and transferred into one collagen coated hyperflask (550 mL). Once the cells are confluent, medium was changed to DMEM+Glutamax I with 1% DMSO and 2.5% FBS. Once the cells were slightly over confluent, medium was changed to DMEM/F12+Glutamax I (Gibco, #31331) supplemented with MEM non-essential amino acids (6 mL, Gibco, #11140), Pen/Strep (6 mL), sodium pyruvate (6 mL), DMSO (9 mL) and FBS (10 mL) (all per 500 mL medium). Medium was changed every 3 days and supernatants were harvested for 2 weeks. Virus was concentrated from supernatants by PEG precipitation and the titer (genome equivalent (GE)/mL) was determined by qPCR. Briefly, supernatants were mixed with 40% PEG solution at a ratio of 4:1, incubated on a shaker at 4° C. overnight and then centrifuged using 50 mL falcon tubes at 4° C. for one hour at 3724 g (RCF). The supernatant was discarded and the centrifugation step was repeated with new supernatant reusing the tubes until all PEG-precipitated supernatant was processed. The pellets were re-suspended in William's E Medium (Gibco, #22551) at a concentration of 10^7-10^9 genome equivalents (GE) per mL and frozen at −80° C. DNA copy number calculation was based on a standard curve generated from HBV plasmid dilutions with known concentrations.
HepaRG cells (Biopredic International, Saint-Gregoire, France) were cultured in working growth medium (500 mL Willams E Medium with 50 mL HepaRG Growth supplement from Biopredic, 5 mL Glutamax-I (Gibco, #35050) and 5 mL Pen/Strep) for 2 weeks. After 2 weeks medium was changed to differentiation medium containing 1.8% DMSO (500 mL Willams E Medium with 50 mL HepaRG Growth supplement from Biopredic, 5 mL Pen/Strep, 5 mL Glutamax-I and 9 mL DMSO). Medium was changed twice a week up to 2 weeks. Once fully differentiated, cells were trypsinized and seeded into collagenated 96 well plates (50,000 cells/well in 100 μL) in differentiation medium. Cells were cultured at least 5 days in the 96 well plates before they were infected with HBV.
For HBV infection of differentiated HepaRG cells, differentiation medium was removed and new differentiation medium (120 μL/well) containing 4% PEG-8000 and virus stock (20 to 30 GE/cell) was added. Cells were cultured at 37° C. for 16 to 20 h before medium was removed, cells were washed 4 times with PBS and new differentiation medium (120 μL/well) was added.
At day 4 post infection, medium was removed and 100 μL new differentiation medium was added to each well. 3-fold serial dilutions (5 μL compound to 10 μL DMSO) of Drug A and Drug B were prepared in 100% DMSO starting with 15 μL undiluted compound solution (400-fold concentration of highest test concentration). 5 μL of drug A and B dilutions were then added to 990 μL medium (containing 0.8% DMSO) in a 96 deep well plate in a fashion according to the design shown in Table 3. 100 μL thereof were added to the HepaRG cells with a final DMSO concentration of 1.8%. Drug A tested was Compound 6; Drug B tested was Compound 1, Compound 2, Compound 3, Compound 4 or Compound 5. The concentration ranges tested were 1 nM to 0.01 nM for Compound 6, and 300 nM to 0.412 nM for Compound 1 to 5. Medium was replaced by new medium with compound at day 7 post infection and at day 11 post infection cell supernatants were harvested and directly used for HBV DNA extraction or stored at −20° C. Cell viability of the cells was determined using the cell viability assay described below.
HBV DNA from HepaRG cell supernatants was extracted using the MagNA Pure 96 (Roche) robot. 100 μL of the supernatants were mixed in a processing cartridge with 200 μL MagNA Pure 96 external lysis buffer (Roche, Cat. No. 06374913001) and incubated for 10 minutes. […]

HBV [2] = conditions: HBV infected transgenic or humanized mice; Deres 2003, Brezillon 2011; cited from earlier work
[3] = individual compound alone, from the combination studies, HBV DNA in supernatant day 11 post infection, read-out: EC50 ± SD (n) Drug A

| Compound | EC50 (HBV [1]; [3]) | other results |
| --- | --- | --- |
| COC(=O)C1=C(CN2CCN3C(=O)N(CC(C)(C)C(=O)O)CC3C2)NC(c2nccs2)=N[C@H]1c1ccc(F)cc1Cl (stereo in doubt) [Compound 5, 3-[(8aS)-7-[[(4R)-4-(2-chloro-4-fluoro-phenyl)-5-methoxycarbonyl-2-thiazol-2-yl-1,4-dihydropyrimidin-6-yl]methyl]-3-oxo-5,6,8,8a-tetrahydro-1H-imidazo[1,5-a]pyrazin-2-yl]-2,2-dimethyl-propanoic acid] | 24.8 nM | – |
| COC(=O)C1=C(C)NC(c2ncc(F)cc2F)=N[C@H]1c1ccc(F)cc1Cl [Bay 41-4109] | – | in vivo efficacy (HBV DNA reduction) (HBV [2]): demonstrated in vivo efficacy with HBV DNA reduction |
| C=C1[C@H](CO)[C@@H](O)C[C@@H]1n1cnc2c(=O)[nH]c(N)nc21 [Compound 6, Entecavir, reference compound] | – | EC50 (HBV [1]; Compound 6 alone, from the combination study with the Drug A of the same row, HBV DNA day 11 post infection, read-out: EC50 ± SD (n) Drug B): 0.07 nM |
| COC(=O)C1=C(CN2CCOC[C@H]2C(=O)O)NC(c2nccs2)=N[C@H]1c1ccc(F)cc1Cl [Compound 1, (S)-4-[(R)-6-(2-Chloro-4-fluoro-phenyl)-5-methoxycarbonyl-2-thiazol-2-yl-3,6-dihydro-pyrimidin-4-ylmethyl]-morpholine-3-carboxylic acid] | 19.9 nM | – |

The remaining compounds from weak to strong by EC50 (HBV [1]; [3]), led by results:

| EC50 (HBV [1]; [3]) | Compound | other results |
| --- | --- | --- |
| 16.2 nM | COC(=O)C1=C(CN2CCN3C(=O)N(CC(C)(C)CC(=O)O)C[C@@H]3C2)NC(c2nccs2)=N[C@H]1c1ccc(F)cc1Cl [Compound 4, 4-[(8aS)-7-[[(4R)-4-(2-chloro-4-fluoro-phenyl)-5-methoxycarbonyl-2-thiazol-2-yl-1,4-dihydropyrimidin-6-yl]methyl]-3-oxo-5,6,8,8a-tetrahydro-1H-imidazo[1,5-a]pyrazin-2-yl]-3,3-dimethyl-butanoic acid] | – |
| 7.5 nM | CCOC(=O)C1=C(CN2CCN3C(=O)N(CC(C)(C)C(=O)O)C[C@@H]3C2)NC(c2nccs2)=N[C@H]1c1cccc(F)c1Cl [Compound 3, 3-[(8aS)-7-[[(4R)-4-(2-chloro-3-fluoro-phenyl)-5-ethoxycarbonyl-2-thiazol-2-yl-1,4-dihydropyrimidin-6-yl]methyl]-3-oxo-5,6,8,8a-tetrahydro-1H-imidazo[1,5-a]pyrazin-2-yl]-2,2-dimethyl-propanoic acid] | – |
| 5.8 nM | CCOC(=O)C1=C(CN2CCN3C(=O)N(CC(C)(C)C(=O)O)C[C@@H]3C2)NC(c2nccs2)=N[C@H]1c1cccc(F)c1C [Compound 2, 3-[(8aS)-7-[[(4S)-5-ethoxycarbonyl-4-(3-fluoro-2-methyl-phenyl)-2-thiazol-2-yl-1,4-dihydropyrimidin-6-yl]methyl]-3-oxo-5,6,8,8a-tetrahydro-1H-imidazo[1,5-a]pyrazin-2-yl]-2,2-dimethyl-propanoic acid] | – |

From patent publication US20190275052A1, “COMBINATION THERAPY OF AN HBV CAPSID ASSEMBLY INHIBITOR AND A NUCLEOS(T)IDE ANALOGUE” (Hoffmann-La Roche Inc., priority 2016, published 2019)
